“Also recorded” adds a separate entry of the source.
Assays:
[1] = tested on: R/R B-cell ALL (B-ALL); assay: Retrospective PRWCC analysis: response, relapse, composite endpoint (relapse or loss of BCA) and overall survival after tisagenlecleucel; assay type: in vivo, human; conditions: for HR, overall survival, patients with high pre-infusion disease burden: sub-optimal fludarabine exposure
[2] = Retrospective PRWCC analysis: toxicity (CRS, neurotoxicity/ICANS, infection, neutropenia, cause of death) after tisagenlecleucel; assay type: in vivo, human
Procedure: Study Design. A retrospective analysis of pediatric and young adult patients with R/R B-ALL as part of the Pediatric Real-World CAR Consortium (PRWCC; n=15 centers) was conducted. Two hundred (n=200) patients underwent collection/manufacture for planned standard-of-care CD19-specific CAR T cell therapy (tisagenlecleucel).
Outcomes of interest. The main outcomes of interest were overall survival (OS), cumulative incidence of relapse (CIR), and the cumulative incidence of a composite endpoint (relapse or loss of BCA). Other outcomes of interest were response rates, cytokine release syndrome (CRS), and immune effector cell associated neurotoxicity syndrome (ICANS). Complete remission (CR) was defined as ≤5% bone marrow blasts by morphology, absence of circulating lymphoblasts, and no evidence of extramedullary disease. MRD negativity was defined as <0.01% abnormal B cells assessed by flow cytometry. Relapse was defined as any (medullary or extramedullary) evidence of hematologic, cytogenetic, and/or molecular recurrence of primary disease. CD19-positive B cell recovery was defined as any detectable CD19-positive B cells ([…]) on a peripheral blood lymphocyte flow cytometry panel. Toxicity grading was described according to ASTCT (Lee et al., Biol Blood Marrow Transplant. 04 2019; 25 (4):625-638) for CRS and ICANS. Additionally, patients were further delineated based on their disease burden: high disease burden (≥5% lymphoblasts, CNS3 disease and/or isolated EM disease), and no (undetectable) or low disease burden (<5% lymphoblasts, ≤CNS2 disease, and/or no detectable EM disease) based off the previous PRWCC analysis (Schultz et al., Blood. 2020; 136 (Supplement 1):14-15). The fludarabine exposure, area under the curve (AUC), for each patient was calculated using a population PK model as previously described in Langenhorst et al., Clin Pharmacokinet. May 2019; 58 (5):627-637. The patient variables required to calculate an estimated fludarabine exposure include estimated GFR (using either the Cockroft-Gault or Schwartz equation depending on age), actual body weight, height, and dosage of fludarabine utilized where actual body weight and estimated GFR are the best predictors of fludarabine PK (Langenhorst et al., Clin Pharmacokinet. May 2019; 58 (5):627-637).
Statistical Analysis. For all analyses, tisagenlecleucel infusion date was considered time zero (0). The impact of different factors on the chance of response was assessed through Mann-Whitney-Wilcoxon test for continuous variables, Chi-squared or Fisher's exact test for categorical variables (univariable analysis), and logistic regression (multivariable analysis). OS for all treated patients was defined as the time from infusion to death from all causes. OS in responding patients was defined as time from day of response (day 28 from CAR infusion) to death from all causes. Patients alive were censored at their last follow-up date. Time-to-relapse was defined as the time from the date of infusion to the date of disease relapse, while time-to-composite endpoint was defined as the time from the date of infusion to the date of either disease relapse or loss of BCA, whichever came first. For both endpoints, patients alive without disease relapse (and loss of BCA for composite endpoint) were censored at their date of last follow-up. Death and allo-HCT without disease relapse (and loss of BCA) were considered competing events. […]

[3] = Estimated fludarabine exposure (AUC) calculated with a population PK model; design: species or system human
[4] = multivariable, AUC <13.8 (sub-optimal) vs ≥13.8 mg*hr/L (ref), responding patients
[5] = univariable, AUC <13.8 vs ≥13.8 mg*hr/L (ref)
[6] = univariable, AUC <13.8 vs ≥13.8 mg*hr/L (ref), responding patients

## tisagenlecleucel
[1]; Example 1
  12-month OS: 75%
  12-month cumulative incidence of relapse in responders: 39.2%
[1]; Example 2
  12-month CIR in responding patients: 36.4%
[1]; Example 2, entire cohort
  12-month OS: 75.1%
  24-month OS: 56.5%
[1]; at 12-months, responding patients
  cumulative incidence of composite endpoint (relapse or loss of BCA): 55.2%
[1]; n=152
  loss of BCA post CAR: (34%)
  relapsed post CAR: (36%)
[1]; share of relapses post CAR
  CD19-negative relapse: (45%)
  CD19-positive relapse: (55%)
[2]; all patients, 12/152
  severe neurotoxicity (grade 3 or higher): 8%
[2]; all patients, 33/152
  severe CRS (sCRS; grade 3 or higher): 22%
[2]; all patients, 36/152
  neurotoxicity: 24%
[2]; all patients, 57/152
  infection post CAR T cell therapy: 38%
[2]; all patients, 97/148
  Grade 4 neutropenia: 66%
[2]; all patients, 97/152
  CRS: 64%
[2]; n=152
  CRS grade 1: (24%)
  CRS grade 2: (18%)
  CRS grade 3: (11%)
  CRS grade 4: (10%)
  CRS grade 5: (1%)
  CRS grade none: (36%)
  Neurotoxicity grade 1: (11%)
  Neurotoxicity grade 2: (5%)
  Neurotoxicity grade 3: (5%)
  Neurotoxicity grade 4: (2%)
  Neurotoxicity grade 5: (1%)
  Neurotoxicity grade none: (76%)
[2]; share of deaths
  Cause of death: ARDS/cardiac arrest: (2%)
  Cause of death: CRS: (2%)
  Cause of death: Infection: (10%)
  Cause of death: Leukemia: (74%)
  Cause of death: Neurotoxicity: (2%)
  Cause of death: Transplant related: (7%)

## Nc1nc(F)nc2c1ncn2[C@@H]1O[C@H](CO)[C@@H](O)[C@@H]1O [fludarabine, reference compound]
[3]; Example 1, exposure analyzed as continuous variable (FIG. 1)
  fludarabine AUC threshold of interest for disease relapse: 13.8 mg·h/L
[3]; Example 2, where hazard ratio curve for CIR crosses HR=1
  optimal fludarabine exposure (AUC): ≥ 13.8 mg·h/L
[1]; multivariable analysis, AUC as continuous variable
  odds ratio of response by cumulative Flu AUC (mg*hr/L): 0.81
[1]; multivariable, AUC <13.8 (sub-optimal) vs ≥13.8 mg*hr/L (ref)
  HR, overall survival in responding patients: 1.97
[1]; multivariable, AUC <13.8 (sub-optimal) vs ≥13.8 mg*hr/L (ref), entire cohort
  HR, overall survival in all treated patients: 1.53
[1]; [4]
  HR, cumulative incidence of composite endpoint (relapse or loss of B-cell aplasia): 1.96
  HR, cumulative incidence of relapse: 2.45
[1]; all treated patients
  HR, overall survival, patients with high pre-infusion disease burden: 2.27
[1]; responding patients only
  HR, overall survival, patients with high pre-infusion disease burden: 3.50
[1]; [5]
  HR, overall survival in all treated patients: 1.51
  HR, overall survival in responding patients: 2.25
[1]; [6]
  HR, cumulative incidence of composite endpoint (relapse or loss of B-cell aplasia): 1.77
  HR, cumulative incidence of relapse: 1.95
[2]; all received suboptimal fludarabine
  patients who died from infection: four
[2]; in vivo
  infection risk with increased fludarabine exposure (≥13.8 mg*hr/L): no apparent increased infection risk
[2]; neurotoxicity limited to ICANS graded patients
  association of optimal fludarabine exposure with toxicity (CRS, neurotoxicity): not associated with increased CRS or neurotoxicity; also recorded: No increase in toxicity
[2]; optimal flu (≥13.8 mg*hr/L), 5/67
  ICANS grade ≥3 (sICANS): 7%
[2]; optimal flu (≥13.8 mg*hr/L), 5/67, listed as flu
  ICANS grade ≥3 (sICANS): (7%)
[2]; optimal flu (≥13.8 mg*hr/L), 15/67
  ICANS grade ≥1: 22%
[2]; optimal flu (≥13.8 mg*hr/L), 15/67, listed as flu
  ICANS grade ≥1: (22%)
[2]; optimal flu (≥13.8 mg*hr/L), 18/102
  CRS grade ≥3 (sCRS): 18%
[2]; optimal flu (≥13.8 mg*hr/L), 18/102, listed as flu
  CRS grade ≥3 (sCRS): (18%)
[2]; optimal fludarabine exposure, 36/102
  infection post CAR T cell therapy: 35%
[2]; patients receiving optimal fludarabine
  Grade 4 neutropenia: 65%
[2]; patients receiving suboptimal fludarabine
  Grade 4 neutropenia: 67%
[2]; sub-optimal flu (<13.8 mg*hr/L), 4/31
  ICANS grade ≥3 (sICANS): 13%
[2]; sub-optimal flu (<13.8 mg*hr/L), 4/31, listed as flu
  ICANS grade ≥3 (sICANS): (13%)
[2]; sub-optimal flu (<13.8 mg*hr/L), 9/31
  ICANS grade ≥1: 29%
[2]; sub-optimal flu (<13.8 mg*hr/L), 9/31, listed as flu
  ICANS grade ≥1: (29%)
[2]; sub-optimal flu (<13.8 mg*hr/L), 15/50
  CRS grade ≥3 (sCRS): 30%
[2]; sub-optimal flu (<13.8 mg*hr/L), 15/50, listed as flu
  CRS grade ≥3 (sCRS): (30%)
[2]; suboptimal fludarabine exposure, 21/50
  infection post CAR T cell therapy: 42%

Source: US20240000939A1, “METHODS OF PERSONALIZED PRECONDITIONING FOR CELL THERAPY” (priority 2021, published 2024)
